Experimental data as given in patent US4620971A, “Indium-bleomycin complex” (The United States of America as represented by the …, priority 1983, dated 1986).
Entries after “also recorded” stand apart in the source; their conditions may differ.

How the values were obtained:
glioma = experiment: Gamma images - tumor imaging in glioma-bearing mice; assay type: in vivo; conditions: 24 hr after i.p. injection
Description: The 2- to 3-week-old glioma-bearing mice (tumor size: 1.0-1.5 cm) were given injections of ^111 In-BLMC, ^67 Ga-citrate, or ^111 In-BLM into the orbital sinus (or by ip injection). Images were taken with a gamma camera (Raytheon) immediately, 1, 2, 4, 24, and 48 hr after injection by using a pinhole collimator (1/4 inch diameter), with the distance of 12 cm between mouse and collimator. ^111 In-BLM, and ^111 In-BLMC were obtained according to Examples II and III; ^67 Ga-citrate was commercially obtained from New England Nuclear (NEN), Boston, Mass.

serum transferrin = experiment: Binding to serum transferrin, in vitro mixtures with plasma (gel electrophoresis); design: species or system mice
Procedure: Solutions of ^111 In-BLM, ^111 In-BLM-B2, ^111 -In-BLM-A2, ^111 In-BLMC and ^57 Co-BLM were analyzed by TLC using 10% ammonium acetate-methanol (1:1 v/v) as the eluant. After applying 0.2 μl of the samples, cold air was blown over the plate for 1-2 minutes. The plate was placed in a TLC cylinder containing freshly prepared eluant and the cylinder immediately covered with a glass plate. All cylinders were enclosed in a sealed plastic bag together with an open beaker containing eluant in order to maintain a saturated atmosphere. One to three, 48-hour urine samples from normal or gliomabearing mice given injections of ^111 In-BLM or one of its fractions were also analyzed by this TLC procedure. The same urine samples were also analyzed by gel electrophoresis on 5% agarose (Sigma or BRL low EEO) (Hoch, et al Anal Biochem. 78: 312-317, 1977). The aqueous gel was equilibrated against Co2 -saturated 0.02M NaHCO3 and the electrode chambers contained CO2 -saturated 0.1M NaHCO3. […] In vitro mixtures of 5 parts urine from untreated mice and 1 part of solution of ^111 In-BLM or its fraction were similarly analyzed immediately after mixing. […] The same gel electrophoresis procedure was used for ^111 In-BLM, ^111 In-BLMC, ^111 In-BLM-A2, ^111 In-BLM-B2 and ^57 Co-BLM; the dried plates were autoradiographed or analyzed with radiochromatogram scanner. […]

[1] = Whole body activity retained / excretion in normal mice; assay type: in vivo, C57BL/6 mice; conditions: ip
Procedure: Male 6-week-old C57BL/6 untreated, not tumor-bearing, mice were given intraperitoneal (ip) injectons of 30-40 μCi of ^111 InCl3, ^111 In-BLM-B2, ^111 In-BLM, ^111 In-BLMC or ^57 Co-BLM. At 1, 2, 4, 24, 48, and 72 hr after injection of the radiopharmaceutical, the animal was made to urinate and then the whole body activity was measured in a dose calibrator (FIG. 8).

Glioma 26 = experiment: Control experiment with cold InCl3, intratumor; assay type: in vivo, C57 BL/6 mice; conditions: for Host weight / Tumor size: cold, i.t.
Procedure: Two control experiments were made with cold InCl3 (InCl3 that had been stored for 4 weeks and was practically nonradioactive, pH=1-3) and cold In-BLMC (prepared with nonradioactive InCl3 by the same method as that used for ^111 In-BLMC, final pH=1.5-3.0). At a tumor age of 6 days, ip injections were given daily for 3 days: Group VII (n=5)--0.2 ml of 0.9% NaCl; Group VIII (n=5)--In-BLMC carried by 0.004 mg BLM/g tumor weight in 0.2 ml of 0.9% NaCl. At a tumor age of 13 days, single doses were given it: Group IX (n=2)--0.7 ml of 0.9% NaCl/g tumor weight; Group X (n=3)--InCl, 0.7 ml/g tumor weight.
The tumor size (product of the three dimensions in mm^3) and body weight were measured daily for 16 days following the first injection. Host weight was obtained by subtracting tumor weight from body weight, where tumor weight (g)=tumor size (d1 d2 d3, mm^3)×0.00053

## O=C([O-])CC(O)(CC(=O)[O-])C(=O)[O-].[67Ga+3] [^67 Ga-citrate]
glioma
  Accumulation of radioactivity in tumor (gamma images): higher for ^111 In-BLMC (FIG. 9e) than that for ^67 Ga-citrate (FIG. 9d)
  Activity in liver and background (gamma images): lower for ^111 In-BLMC than those for ^67 Ga-citrate or ^111 In-BLM

## [Cl][111In]([Cl])[Cl] [^111 InCl3]
Serum transferrin
  Binding to transferrin: binds to serum transferrin in vitro
[1]
  Rate of excretion (from percent activity retained): rate of excretion increased in the following order, reflecting descreasing binding capacity for transferrin: ^111 InCl3, ^111 In-BLM-B2, ^111 In-BLM, ^57 Co-BLM, ^111 In-BLMC

## [Cl][In]([Cl])[Cl] [InCl3]
Glioma 26; cold InCl3 i.t.
  Tumor size vs NaCl, comparison: did not affect glioma; also recorded: the tumor sizes increased and were similar
Glioma 26; day 0 after therapy
  Host weight: 20.3 ± 2.5 g
  Tumor size: 1238 ± 711 mm^3
Glioma 26; day 1 after therapy
  Host weight: 20.4 ± 1.6 g
  Tumor size: 1741 ± 701 mm^3
Glioma 26; day 2 after therapy
  Host weight: 20.0 ± 1.6 g
  Tumor size: 1998 ± 559 mm^3
Glioma 26; day 3 after therapy
  Host weight: 20.0 ± 1.5 g
  Tumor size: 2496 ± 395 mm^3
Glioma 26; day 4 after therapy
  Host weight: 20.0 ± 1.5 g
  Tumor size: 2720 ± 503 mm^3
Glioma 26; day 5 after therapy
  Host weight: 19.9 ± 1.6 g
  Tumor size: 3333 ± 276 mm^3
Glioma 26; day 6 after therapy
  Host weight: 17.9 ± 1.9 g
  Tumor size: 3882 ± 501 mm^3
Glioma 26; day 7 after therapy
  Host weight: 18.8 ± 2.9 g
  Tumor size: 5015 ± 936 mm^3
Glioma 26; day 8 after therapy
  Host weight: 19.1 ± 2.4 g
  Tumor size: 5234 ± 1146 mm^3
Glioma 26; day 9 after therapy
  Host weight: 20.3 ± 3.8 g
  Tumor size: 5988 ± 492 mm^3
